Measurements published in US20260325504A1, “Genetically Engineered Human Pituitary Corticotroph Tumor Organoids Exhibit Divergent Responses to Selective Glucocorticoid Receptor Modulators” (Corcept Therapeutics Incorporated, priority 2022, published 2026).
Entries after “also recorded” stand apart in the source; their conditions may differ.

Columns and labels:
iPSC^USP48MV organoids [1] = assay: EdU uptake (proliferation) in iPSCUSP48MV organoids; assay type: cell-based, human; conditions: 100 nM pretreatment 2 h before mifepristone
Protocol: (§1) iPSCs were stained for pituitary specific hormones including luteinizing hormone (LH), follicle-stimulating hormone (FSH), growth hormone (GH), prolactin (PRL), ACTH, cytokeratin 8/18 (CAM5.2), pituitary transcription factor PIT-1 and neuroendocrine marker Synaptophysin (Table 5). Cultures were immunostained for proliferation marker EdU (Click-IT EdU Alexa Fluor 555 Imaging Kit, Thermo Fisher Scientific C10338). Antibody dilutions were determined based on manufacturer guidelines and antibody titration (Table 5). Staining was conducted according to previously published protocols. Briefly, organoids and iPSCs grown in 8-well glass bottom chamber slides were fixed using 3.7% formaldehyde, washed with DPBS, permeabilized with 0.5% Triton X-100 (SIGMA X-100, PBS-T, 20 min at room temperature), washed with 0.01% PBS-T, and blocked with 2% donkey serum (Jackson Immuno Research 017-000-121) for 1 hour at room temperature. After blocking, primary antibodies were added and incubated overnight at 4° C. Slides were washed with 0.01% PBS-T and incubated with secondary antibodies (Table 5) with Hoechst (Thermo Fisher Scientific H1399) for 1 hour at room temperature. Organoids were washed and stored in PBS at 4° C. until microscopic analysis. High content confocal microscopy was performed using the Nikon Ti2-E Inverted Microscope (with a Crest X-Light V2 L-FOV Spinning Disk Confocal) at the University of Arizona Cancer Center, or a ZEISS LSM880 34 channel Laser Scanning Confocal Microscope at University of Arizona Marley Imaging Core. Fluorescence intensity was quantified as the percentage of marker-positive cells versus total cells, using Nikon Elements Software (Version 5.21.05). Proliferation for each iPSC line was quantified as the percentage of EdU-positive cells versus total cells.
(§2) Sonic Hedgehog (SHH) was withdrawn from the organoid growth media 16 hours prior to treatment. The experimental treatment groups included: vehicle (Veh), mifepristone (500 nM, Selleckchem S2606), GANT61 (5 μM, Stemcell Technologies 73692), ketoconazole (Keto, 10 μM, Selleckchem S1353), pasireotide (Pas, 100 nM, Target Mol TP2207-SB001), octreotide (Oct, 100 nM, Selleckchem P1017), mifepristone plus GANT61, mifepristone plus Keto, mifepristone plus Pas, relacorilant (500 nM, Corcept Therapeutics CORT125134), relacorilant plus Pas, relacorilant plus Oct, or dexamethasone (Dexa, 100 nM, SIGMA S4902). In the combination treatments, cultures were pretreated with the GANT61, Keto, Pas or Oct for 2 hours prior to treatment with mifepristone or Rela. […] The IC50 values used for each hPITO line for each drug were determined based on dose responses (FIG. 12). […]

iPSC^ctrl organoids [2] = assay: EdU uptake (proliferation) in iPSCctrl organoids; assay type: cell-based, human; conditions: 100 nM pretreatment 2 h before mifepristone
Protocol: as §1, §2

iPSC^USP48MV organoids [3] = assay: ACTH secretion ELISA, iPSCUSP48 organoids; assay type: cell-based, human; conditions: iPSCUSP48, 100 nM pretreatment 2 h before mifepristone, FIG. 7G
Protocol: (§3) Sonic Hedgehog (SHH) was withdrawn from the organoid growth media 16 hours prior to treatment. The experimental treatment groups included: vehicle (Veh), mifepristone (500 nM, Selleckchem S2606), GANT61 (5 μM, Stemcell Technologies 73692), ketoconazole (Keto, 10 μM, Selleckchem S1353), pasireotide (Pas, 100 nM, Target Mol TP2207-SB001), octreotide (Oct, 100 nM, Selleckchem P1017), mifepristone plus GANT61, mifepristone plus Keto, mifepristone plus Pas, relacorilant (500 nM, Corcept Therapeutics CORT125134), relacorilant plus Pas, relacorilant plus Oct, or dexamethasone (Dexa, 100 nM, SIGMA S4902). In the combination treatments, cultures were pretreated with the GANT61, Keto, Pas or Oct for 2 hours prior to treatment with mifepristone or Rela. PitNET tissue derived organoids hPITO36, hPITO37, hPITO38, hPITO39, and hPITO40 were treated with the following experimental conditions: Vehicle (1), pasireotide (2), relacorilant (3), relacorilant & pasireotide (4), mifepristone (5), mifepristone & pasireotide (6). The IC50 values used for each hPITO line for each drug were determined based on dose responses (FIG. 12). All organoid cultures were treated for 48 hours prior to analysis.
(§4) Organoid conditioned media was collected and ACTH secretion using an ELISA according to the manufacturer's protocol (Novus Biologicals Human ACTH ELISA Kit NBP2-66401). The optical density was measured at a wavelength of 450 nm, and ACTH concentration (pg/mL) was interpolated using a standard curve with a 4-parameter logistic regression analysis using GraphPad Prism (v9.3.1).

iPSC^ctrl organoids [4] = assay: ACTH secretion ELISA, iPSCctrl organoids; assay type: cell-based, human; conditions: 100 nM pretreatment 2 h before mifepristone, FIG. 6G
Protocol: as §3, §4

SSTR2 [5] = conditions: cited from earlier work
SSTR2 [6] = assay: Differential expression of SSTR2 (qRT-PCR) in iPSC generated pituitary organoids; assay type: cell-based, human; conditions: for differential expression of SSTR2: iPSCctrl organoids, compound alone, 48 h, FIG. 5C, D; for effect on mifepristone-induced SSTR2 expression / effect on relacorilant-induced SSTR2 expression: iPSC organoids; for effect on mifepristone-induced SSTR2 expression: pretreatment 2 h before mifepristone (500 nM); for effect on relacorilant-induced SSTR2 expression: pretreatment 2 h before relacorilant (500 nM)
Protocol: as §3
(§5) RNA was extracted from PitNET tissue or iPSC generated organoids using TRI Reagent® (Molecular Research Center Inc TR118) and the High Capacity cDNA Reverse Transcription Kit (Applied Biosystems, Foster City, CA) was used for cDNA synthesis of RNA following the recommended protocol. For each sample, 60 ng RNA was reverse transcribed to yield approximately […] total cDNA that was then used for the qRT-PCR. Pre-designed real-time polymerase chain reaction assays were purchased for the following genes: TPit (Thermo Fisher Scientific 4331182 Hs00193027), SF1 (Thermo Fisher Scientific 4331182 Hs00610436), SSTR2 (Thermo Fisher Scientific 4331182 Hs00265624_s1), SSTR5 (Thermo Fisher Scientific 4331182 Hs00990407_s1), POMC (Thermo Fisher Scientific 4331182 Hs01596743_ml), hPRT (Thermo Fisher Scientific 4331182 Hs02800695_ml), and FKBP5 (Thermo Fisher Scientific 4331182 Hs01561006_m1). Polymerase chain reaction amplifications were performed in a total volume of 20 μL containing 20× TaqMan Expression Assay primers, 2× TaqMan Universal Master Mix (Applied Biosystems, TaqMan® Gene Expression Systems), and cDNA template. Each polymerase chain reaction amplification was performed in triplicate wells in a StepOne Real-Time PCR System (Applied Biosystems) by using the following conditions: 500C 2 minutes, 95° C. 10 minutes, 95° C. 15 seconds (denature) and 60° C. 1 minute (anneal/extend) for 40 cycles. Fold change was calculated as the following: (Ct-Ct high)=n target, 2ntarget/2nHPRT=fold change where Ct=threshold cycle. The results were expressed as average fold change in or differential gene expression relative to control, with HPRT used as an internal control according to Livak and Schmittgen.

SSTR5 = assay: Differential expression of SSTR5 (qRT-PCR) in iPSC generated pituitary organoids; assay type: cell-based, human; conditions: for differential expression of SSTR5: iPSCctrl organoids, compound alone, 48 h, FIG. 5C, D; for effect on mifepristone-induced SSTR5 expression / effect on relacorilant-induced SSTR5 expression: iPSC organoids; for effect on mifepristone-induced SSTR5 expression: pretreatment 2 h before mifepristone (500 nM); for effect on relacorilant-induced SSTR5 expression: pretreatment 2 h before relacorilant (500 nM)
Protocol: as §3, §5

FKBP5 = FKBP5 expression (GR target gene, qRT-PCR) in PitNET organoids; assay type: cell-based, human; conditions: PitNET organoids (iPSCctrl, iPSCUSP48MV, iPSCUSP8), 48 h, FIG. 16A-C
Protocol: as §3
as §5, with “10 minutes, 95° C. 15 seconds (denature) and 60° C. 1 minute (anneal/extend) for 40 cycles.” left out

Hedgehog pathway = conditions: by blocking activation of SMO or GLI1/GLI2; cited from earlier work

C[C@@H](O)[C@@H]1NC(=O)[C@H](CCCCN)NC(=O)[C@@H](Cc2c[nH]c3ccccc23)NC(=O)[C@H](Cc2ccccc2)NC(=O)[C@@H](NC(=O)[C@H](N)Cc2ccccc2)CSSC[C@@H](C(=O)N[C@H](CO)[C@@H](C)O)NC1=O [octreotide]
effect on proliferative response to mifepristone (EdU uptake) (iPSC^USP48MV organoids [1]): inhibited | effect on proliferative response to mifepristone (EdU uptake) (iPSC^ctrl organoids [2]): inhibited | effect on ACTH secretion in response to mifepristone (iPSC^USP48MV organoids [3]): inhibition by octreotide was greater that pasireotide | effect on ACTH secretion in response to mifepristone (iPSC^USP48MV organoids [3]; listed as Oct): significantly reduced ACTH secretion | effect on ACTH secretion in response to mifepristone (iPSC^ctrl organoids [4]): inhibition by octreotide was greater that pasireotide | effect on ACTH secretion in response to mifepristone (iPSC^ctrl organoids [4]; listed as Oct): significantly reduced ACTH secretion | binding to / activation of SSTR2 (SSTR2 [5]): preferentially binds or activates somatostatin receptor type 2 (SSTR2)

C[C@@H]1C[C@H]2[C@@H]3CCC4=CC(=O)C=C[C@]4(C)[C@@]3(F)[C@@H](O)C[C@]2(C)[C@@]1(O)C(=O)CO [dexamethasone]
differential expression of SSTR2 (SSTR2 [6]): significantly decreased expression | differential expression of SSTR5 (SSTR5): significantly decreased expression | differential expression of FKBP5 (FKBP5): significant induction in gene expression

CC(=O)N1CCN(c2ccc(OCC3COC(Cn4ccnc4)(c4ccc(Cl)cc4Cl)O3)cc2)CC1 (stereo not shown) [ketoconazole]
effect on mifepristone-induced SSTR2 expression (SSTR2 [6]): no effect; also recorded: failed to block the induction | effect on mifepristone-induced SSTR2 expression (SSTR2 [6]; listed as ketoconozaole): no effect | effect on relacorilant-induced SSTR2 expression (SSTR2 [6]): failed to block the induction | effect on relacorilant-induced SSTR2 expression (SSTR2 [6]; listed as ketoconozaole): no effect | differential expression of SSTR2 (SSTR2 [6]): no effect | effect on mifepristone-induced SSTR5 expression (SSTR5): no effect; also recorded: failed to block the induction | effect on mifepristone-induced SSTR5 expression (SSTR5; listed as ketoconozaole): no effect | effect on relacorilant-induced SSTR5 expression (SSTR5): no effect; also recorded: failed to block the induction | effect on relacorilant-induced SSTR5 expression (SSTR5; listed as ketoconozaole): no effect | differential expression of SSTR5 (SSTR5): no effect | cell proliferation (Hedgehog pathway): reduce cell proliferation and cell viability | cell viability (Hedgehog pathway): reduce cell proliferation and cell viability

CN(C)c1ccccc1CN1CCCN(Cc2ccccc2N(C)C)C1c1ccncc1 [GANT61]
effect on mifepristone-induced SSTR2 expression (SSTR2 [6]): reduced the induction of SSTR2 expression; also recorded: blocks SSTR2 and SSTR5 expression; also recorded: inhibited | effect on relacorilant-induced SSTR2 expression (SSTR2 [6]): blocks SSTR2 and SSTR5 expression; also recorded: inhibited | differential expression of SSTR2 (SSTR2 [6]): no effect | effect on mifepristone-induced SSTR5 expression (SSTR5): blocks SSTR2 and SSTR5 expression; also recorded: reduced; also recorded: inhibited | effect on relacorilant-induced SSTR5 expression (SSTR5): reduced the induction of SSTR5 expression; also recorded: blocks SSTR2 and SSTR5 expression; also recorded: inhibited | differential expression of SSTR5 (SSTR5): no effect | cell proliferation (Hedgehog pathway): reduce cell proliferation and cell viability | cell viability (Hedgehog pathway): reduce cell proliferation and cell viability

CC(C)[C@@H]1NC(=O)[C@H](CCCCN)NC(=O)[C@@H](Cc2c[nH]c3ccccc23)NC(=O)[C@H](Cc2ccc(O)cc2)NC(=O)[C@@H](NC(=O)[C@H](N)Cc2ccc3ccccc3c2)CSSC[C@@H](C(=O)N[C@H](C(N)=O)[C@@H](C)O)NC1=O [lanreotide]
binding to / activation of SSTR2 (SSTR2 [5]): preferentially binds or activates somatostatin receptor type 2 (SSTR2)
